Earlier results on three molecules are cited in patent publication US20230068267A1, “PLANT EXTRACT COMPOSITION FOR THE TREATMENT OF CARDIOVASCULAR AND METABOLIC DISEASES” (Meda Pharma S.p.A., priority 2020, published 2023).

Data set [1] relates to LDL cholesterol. The conditions noted are these: Yu et. al. 2005.
Data set [2] deals with T1, HMG-CoA reductase (Homo sapiens, UniProt P04035).
T1 sequence (P04035 1-888): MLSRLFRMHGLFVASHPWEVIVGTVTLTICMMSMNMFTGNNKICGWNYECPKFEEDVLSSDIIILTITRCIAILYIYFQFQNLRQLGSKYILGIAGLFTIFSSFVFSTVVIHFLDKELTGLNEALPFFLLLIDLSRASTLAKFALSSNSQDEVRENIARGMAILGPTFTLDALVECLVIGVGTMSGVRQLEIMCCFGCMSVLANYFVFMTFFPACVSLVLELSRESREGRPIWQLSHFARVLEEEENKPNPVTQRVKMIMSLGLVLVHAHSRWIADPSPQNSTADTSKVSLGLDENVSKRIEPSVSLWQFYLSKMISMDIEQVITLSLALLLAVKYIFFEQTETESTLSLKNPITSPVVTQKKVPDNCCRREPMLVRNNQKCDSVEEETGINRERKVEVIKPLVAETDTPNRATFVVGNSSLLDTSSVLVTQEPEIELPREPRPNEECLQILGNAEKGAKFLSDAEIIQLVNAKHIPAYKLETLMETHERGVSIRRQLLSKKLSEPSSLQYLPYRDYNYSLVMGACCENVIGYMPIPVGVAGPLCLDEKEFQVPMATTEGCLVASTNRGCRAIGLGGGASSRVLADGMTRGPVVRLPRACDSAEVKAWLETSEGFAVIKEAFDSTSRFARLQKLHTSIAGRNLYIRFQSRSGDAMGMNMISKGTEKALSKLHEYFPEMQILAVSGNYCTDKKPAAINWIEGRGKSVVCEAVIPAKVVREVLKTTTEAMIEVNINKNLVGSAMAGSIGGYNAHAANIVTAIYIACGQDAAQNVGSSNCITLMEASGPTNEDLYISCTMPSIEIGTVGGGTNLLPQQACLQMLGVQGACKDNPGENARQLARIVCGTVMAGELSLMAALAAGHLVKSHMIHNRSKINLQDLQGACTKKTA
Particulars: statin-like properties; Di Donna 2009.

As to Rutin, in data set [1], the “inhibition of the oxidation of LDL cholesterol” value is reported as “inhibit the oxidation of LDL cholesterol”.

`COc1ccc([C@@H]2CC(=O)c3c(O)cc(O[C@H]4O[C@@H](COC(=O)C[C@@](C)(O)CC(=O)O)[C@H](O)[C@@H](O)[C@@H]4O[C@@H]4O[C@@H](C)[C@H](O)[C@@H](O)[C@@H]4O)cc3O2)cc1O` [brutieridin]: in data set [2], the “inhibitory action upon HMG-CoA reductase” value is reported as “inhibitory action upon HMG-CoA reductase”.

In the case of `C[C@@H]1O[C@@H](O[C@@H]2[C@@H](Oc3cc(O)c4c(c3)O[C@H](c3ccc(O)cc3)CC4=O)O[C@@H](COC(=O)C[C@@](C)(O)CC(=O)O)[C@H](O)[C@H]2O)[C@@H](O)[C@H](O)[C@H]1O` [Melitidin], the “inhibitory action upon HMG-CoA reductase” value in data set [2] was “inhibitory action upon HMG-CoA reductase”.
